Measurements: US8187822B2, “Methods to identify modulators” (Givaudan S.A., priority 2007, dated 2012)

Target: T1, TAS2R46 (Homo sapiens, UniProt P59540)
T1 construct: The full length gene of human TAS2R44 was amplified by polymerase chain reaction (PCR) using gene-specific primers that span the entire coding region; RSS tag (first 45 amino acids of rat somatostatin receptor subtype 3) (N); expressed in transfected cells; host or cells: HEK293T/Gα16-gustducin 44 cells, transient transfection
T1 sequence (P59540 1-309): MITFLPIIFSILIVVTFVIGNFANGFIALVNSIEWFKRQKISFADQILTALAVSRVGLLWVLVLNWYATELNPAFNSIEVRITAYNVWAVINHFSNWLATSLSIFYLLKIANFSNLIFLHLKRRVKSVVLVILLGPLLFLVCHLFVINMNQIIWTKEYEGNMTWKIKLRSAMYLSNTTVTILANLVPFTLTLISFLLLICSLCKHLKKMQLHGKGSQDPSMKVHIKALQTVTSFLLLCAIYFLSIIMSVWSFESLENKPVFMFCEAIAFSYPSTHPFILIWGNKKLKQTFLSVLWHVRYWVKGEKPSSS
Assay: Fluo-4 calcium assay, HEK293T/Gα16-gustducin44 cells transiently expressing TAS2R46
Format: cell-based
Protocol: On day 0, the HEK293T/Gα16-gustducin 44 cells are plated in 96-well black wall, clear-bottom plates at a density of 14,000 cells per well and grown overnight in growth media (DMEM with 10% (v/v) heat-inactivated fetal bovine serum, 2 mM L-glutamine, 100 units/ml penicillin, 100 μg/ml streptomycin).
On day 1, the media is changed to an antibiotic-free and serum-free DMEM.
The cells are transfected with Lipofectamine 2000 (Invitorgen) according to the manufacturers recommendations.
Per well of a 96-well plate, 150 ng of vector DNA (SABTR expression vectors or TAS2R16 expression vector from example 1) is diluted in 12.5 μl of DMEM. In a second tube, 0.3 μl of Lipofectamine 2000 is diluted in 12.5 μl of DMEM and incubated for 5 min at room temperature. After the 5 min, both solutions are mixed and incubated for 20 min at RT. The growth medium in the plate is exchanged by 50 μl of DMEM and 25 μl of the lipofectamine/DNA mixture is incubated on the cells for 3-4 hours at 37° in a humidified atmosphere. This mixture is then replaced with an antibiotic-free, serum-containing DMEM.
24 hours post transfection, the cells are used in the Fluo-4 Calcium Assay described in Example 3.
At day 0, the HEK293T cell line expressing Gα16-gustducin44 and a TAS2R bitter taste receptor formed as described in examples 2b or 2c was seeded in antibiotic-free growth medium (standard DMEM with 10% (v/v) heat-inactivated fetal bovine serum, 2 mM L-glutamine[…]) into black wall/clear bottom 96-well plates, coated with poly(ethylenimine) (0.005% v/v) at a concentration of 15,000 cells per well and incubated for 48 hours in humidified atmosphere (37° C., 5% CO2).
At the time of the assay, the growth medium was discarded and the cells were in humidified atmosphere (37° C., 5% CO2) for 1 hour with 50 μl of loading buffer consisting of 1.5 μM Fluo-4 AM and […] probenicid (Sigma-Aldrich, St. Louis, Mo., US) in DMEM.
Afterwards, the 96-well plate was washed 5 times with 100 μl of assay buffer (130 mM NaCl, 5 mM KCl, 10 mM HEPES, 2 mM CaCl2, and 5 mM dextrose, pH 7.4) per well, using an automated plate washer (BioTek). The plate was further incubated for 30 minutes at room temperature in the dark to allow for complete de-esterification of the Fluo-4. Afterwards the plate was washed 5 times with 100 μl of assay buffer per well, and reconstituted with 100 μl of assay buffer per well.
For assay reading, the plate was placed in a Fluorometric Imaging Plate Reader (FLIPR) (FLIPR-TETRA™, Molecular Devices, Sunnyvale, Calif., US), and receptor activation was initiated by addition of 100 μl of a twofold concentrated agonist stock solution (to give the desired agonist end concentration when added to the 100 microliter assay buffer volume), which was prepared in assay buffer.
Fluorescence was continuously monitored for 20 seconds to give a signal baseline (averaged to give F0) prior to agonist addition and for 120 seconds after agonist addition. The change in signal divided by F0 gives ΔF/F0 indicated in the table, with ΔF being the maximum signal occurring within the 120 seconds minus the minimum signal (occurring within the 120 seconds after agonist addition.
All data was collected from at least two independent experiments each carried out in triplicate.
The obtained calcium signals were corrected for the response of cells expressing only the G Protein α subunit (Gα16-gustducin44) and normalized to the fluorescence of cells prior to the stimulus using ΔF/F0 (Fmax−Fmin/F0).
The intracellular calcium response following addition of sucralose was determined in HK293T cell line stably expressing Gα16-gustducin44 and transiently expressing TAS2R46 formed as described in example 2b.

`OC[C@H]1O[C@H](O[C@]2(CCl)O[C@H](CCl)[C@@H](O)[C@@H]2O)[C@H](O)[C@@H](O)[C@H]1Cl` [Sucralose, sucralose] was tested, and the “calcium signaling in TAS2R46 cells, in words” value was “significant concentration-dependent increase in calcium signaling”, the “TAS2R46 ΔF/F0” value (sucralose 0.3906 mM) was 0.041 and the “TAS2R46 ΔF/F0” value (sucralose 0.7813 mM) was 0.038. The “TAS2R46 ΔF/F0” value (sucralose 1.5625 mM) was 0.035, the “TAS2R46 ΔF/F0” value (sucralose 3.1250 mM) was 0.036 and the “TAS2R46 ΔF/F0” value (sucralose 6.2500 mM) was 0.057. For the same molecule, the “TAS2R46 ΔF/F0” value (sucralose 12.5000 mM) was 0.075, the “TAS2R46 ΔF/F0” value (sucralose 25.0000 mM) was 0.106 and the “TAS2R46 ΔF/F0” value (sucralose 50.0000 mM) was 0.171. The “TAS2R46 ΔF/F0” value (sucralose 100.0000 mM) was 0.258.
